# Where two headings read alike, the source gives them in different places. Residues, ends and D or L forms follow the SMILES beside them.
# Key:
# HIV-1 = details: PBMCs, 23 HIV-1 clinical isolates from different subtypes, cited from earlier work
# HIV [1] = details: MT-4 cells; read-out: EC50, anti-HIV activity; cited from earlier work
# CA-hexamers = details: read-out: binding affinity of CA-hexamers with PF74 by ITC; isothermal calorimetry, Bhattacharya et al., 2014; cited from earlier work
# HIV [2] = details: MT-2 cells; cited from earlier work
# HIV-1 CA-hexamers = HIV-1 CA-hexamers (Human immunodeficiency virus type 1 group M subtype B, UniProt P12493); assay: biochemical; type: binding
# Protocol: During the MST experiment, a temperature gradient is induced by an infrared laser. The directed movement of molecules through the temperature gradient is detected and quantified using covalently attached fluorophore.
# Fluorescent labeling of CA with Alexa Fluor 647 analog NT647 was performed according to the manufacturer's instructions (MO-L004 Monolith Protein Labeling Kit; NanoTemper Technologies GmbH, Munich, Germany). 20 μM protein was incubated overnight with 3 molar excess of dye at room temperature in a conjugation buffer provided with the labeling kit. The unreacted dye was removed by filtration through a gravity flow column provided with the kit. The elution fractions were collected in 2×MST buffer (100 mM MOPS, pH 7.0, 200 mM NaCl, and 0.2% pluronic F-127). Fluorescence intensity of each fraction was evaluated by MST (Monolith NT.115, NanoTemper Technologies GmbH, Munich, Germany), and fractions containing labelled protein were pooled. Protein concentration was determined by NANODROP (Thermo Scientific, Waltham, MA) spectrophotometer. Aliquots were stored at −80° C. until use. […] The data were analyzed using MO. Affinity software (version 2.3) (NanoTempet Technologies, CA) by fitting the data point to a quadratic equation (Equation 1) and plotting by PRISM (Version 6.0) (GraphPad Inc. La Jolla, CA).
smiles,measurement,setting,value
CC(C)(C#Cc1ccc(-c2ccc(Cl)c3c(NS(C)(=O)=O)nn(CC(F)(F)F)c23)c([C@H](Cc2cc(F)cc(F)c2)NC(=O)Cn2nc(C(F)(F)F)c3c2C(F)(F)[C@@H]2C[C@H]32)n1)S(C)(=O)=O [GS-6207],EC50,HIV-1; read-out: mean EC50,0.05 nM
same,EC50,HIV-1; read-out: range of EC50 over clinical isolates,0.02 to 0.16 nM
same,EC50,HIV [1],0.1 nM
Cc1[nH]c2ccccc2c1CC(=O)N[C@@H](Cc1ccccc1)C(=O)N(C)c1ccccc1 [PF74],Kd,CA-hexamers,262 nM
same,EC50,HIV [2],570 nM
CC(C)[C@@H]1NC(=O)CNC(=O)[C@H](CO)NC(=O)CNC(=O)[C@@H]2CCCN2C(=O)[C@H](Cc2ccccc2)NC(=O)[C@H](CC(N)=O)NC(=O)[C@H](C(C)C)NC(=O)[C@@H]2CCCN2C(=O)CNC(=O)[C@H](Cc2ccccc2)NC(=O)[C@H]([C@@H](C)O)NC(=O)[C@H](Cc2ccccc2)NC1=O [Pep-2-cyclic] (cyclo(FGPVNFPGSGVFT)),Kd,HIV-1 CA-hexamers,32 ± 3 nM
same,fold better CA binding affinity than PF74,"HIV-1 CA-hexamers; Pep-2-cyclic vs PF74, MST",~7 fold

# — patent US12590125B2, “Peptide inhibitors for the inhibition of HIV capsid” (THE CURATORS OF THE UNIVERSITY OF MISSOURI, priority 2019, dated 2026)
